Data published in patent publication US20240158426A1, “TRANSITION METAL COMPLEX CONTAINING TETRADENTATE NITROGEN DONOR LIGAND AND ELECTROCHEMICAL BIOSENSOR COMPRISING SAME” (I-sens, Inc., priority 2020, published 2024).

Assay: Cyclic voltammetry (CV) of TPMA-based osmium complexes
Conditions: Cl^− counter ion form; Ag/AgCl reference electrode; scanning rate 10 mV/s
Protocol: In order to analyze electrochemical properties of the synthesized TPMA-based osmium complexes, cyclic voltammetry (CV) was used. A well-washed carbon glass electrode with a diameter of 3 mm was used as a working electrode, and an Ag/AgCl electrode was used as a reference electrode, and a Pt electrode was used as a counter electrode to measure it at a scanning rate of 10 mV/s. […] In order to find out only the position of the redox peak, the complex in a Cl^− counter ion form was measured in condition that the concentration of each substance was not constant, by measuring the Cl^− substance in a solution state during the anion exchange process. […] The change in the oxidation/reduction potential according to the type of the substituent and coordinated ligand was analyzed centering on the present complex.

- oxidation/reduction potential E1/2: −0.339 V
Substance: [Os(TPMA)Cl2]^+(PF6^−) [Complex 18]
